Tests used:
Assay type in all cases: biochemical
[1] = target: T1, human p70S6 kinase (p70S6K, kinase domain residues 1-421, T412E mutation) (Homo sapiens, UniProt P23443, T412E); assay: p70S6 kinase assay, Luciferase-Coupled Chemiluminescent Kinase assay (LCCA); details: 5 μM ATP, 12 nM p70S6K; read-out: p70S6K inhibition IC50
T1 construct: human p70S6 kinase domainresidues 1-421, containing a T412E mutation; made in house
Outline: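 Baculovirus-expressed kinase domain (12 nM) reacted 2 h at ambient temperature with 5 μM ATP and 5 μM RRRLSSLRA peptide. Buffer was Tris pH 7.5 with MgCl2, MnCl2, DTT and Triton X-100. Remaining ATP was read by luciferase-luciferin chemiluminescence. IC50 came from 10-point dose-response with a four-parameter Hill fit.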

[2] = target: T2, human Akt1 kinase (kinase domain residues R144-A480, activated with PDK1) (Homo sapiens, UniProt P31749); assay: Akt1 kinase assay, Luciferase-Coupled Chemiluminescent Kinase assay (LCCA); details: 1 μM ATP, 1.3 nM Akt1; read-out: Akt-1 inhibition IC50
T2 construct: made in house
Outline: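 Baculovirus-expressed PDK1-activated Akt1 kinase domain (R144-A480), 1.3 nM, with 5 μM crosstide and 1 μM ATP in Tris pH 7.5 with MgCl2/MnCl2, 3 h at ambient temperature. Remaining ATP read by luciferase-luciferin chemiluminescence; 10-point IC50 from four-parameter fit.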

[3] = target: T3, human Akt2 kinase (kinase domain residues K146-R480) (Homo sapiens, UniProt P31751); assay: Akt2 kinase assay, Luciferase-Coupled Chemiluminescent Kinase assay (LCCA); details: 2 μM ATP, 10 nM Akt2; read-out: Akt-2 inhibition IC50
T3 construct: human Akt2 kinase domain residues K146-R480; made in house
Protocol: Kinase activity and compound inhibition are investigated using one or more of the three assay formats described below. The ATP concentrations for each assay are selected to be close to the Michaelis-Menten constant (KM) for each individual kinase. Dose-response experiments are performed at 10 different inhibitor concentrations in a 384-well plate format. The data are fitted to four-parameter equation (2) below; where Y is the observed signal, X is the inhibitor concentration, Min is the background signal in the absence of enzyme (0% enzyme activity), Max is the signal in the absence of inhibitor (100% enzyme activity), IC50 is the inhibitor concentration at 50% enzyme inhibition and H represents the empirical Hill's slope to measure the cooperativity. Typically H is close to unity. Y=Min+(Max−Min)/(1+(X/IC50)^H) Equation (2) p70S6 Kinase Assay
Biochemical activity of Akt2 kinase was assessed using a Luciferase-Coupled Chemiluminescent Kinase assay (LCCA) format. Kinase activity was measured as the percent ATP remaining following the kinase reaction. Remaining ATP was detected by luciferase-luciferin-coupled chemiluminescence. Specifically, the reaction was initiated by mixing test compounds, 2 μM ATP, 5 μM crosstide peptide and 10 nM Akt2 (baculovirus expressed human Akt2 kinase domain residues K146-R480) in a 20 uL assay buffer (20 mM Tris-HCL pH 7.5, 10 mM MgCl2, 0.03% Triton X-100, 1 mM DTT, 3 mM MnCl2). The mixture is incubated at ambient temperature for 2 hours after which 20 μL luciferase-luciferin mix is added and the chemiluminescent signal read using a Wallac Victor2 reader. The luciferase-luciferin mix consists of 50 mM HEPES, pH 7.8, 8.5 μg/mL oxalic acid (pH 7.8), 5 (or 50) mM DTT, 0.4% Triton X-100, 0.25 mg/mL coenzyme A, 63 uM AMP, 28 μg/mL luciferin and 40,000 units/mL luciferase.

T1 sequence (P23443 1-421 T412E): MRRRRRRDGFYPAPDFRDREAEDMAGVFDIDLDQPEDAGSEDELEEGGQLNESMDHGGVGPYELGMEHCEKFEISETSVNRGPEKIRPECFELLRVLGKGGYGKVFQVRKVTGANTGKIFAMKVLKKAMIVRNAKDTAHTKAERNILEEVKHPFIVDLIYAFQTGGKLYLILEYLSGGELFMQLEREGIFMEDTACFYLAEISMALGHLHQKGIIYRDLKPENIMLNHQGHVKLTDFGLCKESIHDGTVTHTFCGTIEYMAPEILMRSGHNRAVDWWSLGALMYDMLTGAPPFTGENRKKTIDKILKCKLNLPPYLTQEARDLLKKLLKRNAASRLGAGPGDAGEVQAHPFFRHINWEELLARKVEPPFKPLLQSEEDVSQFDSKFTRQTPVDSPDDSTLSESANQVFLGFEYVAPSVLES
T2 sequence (P31749 144-480): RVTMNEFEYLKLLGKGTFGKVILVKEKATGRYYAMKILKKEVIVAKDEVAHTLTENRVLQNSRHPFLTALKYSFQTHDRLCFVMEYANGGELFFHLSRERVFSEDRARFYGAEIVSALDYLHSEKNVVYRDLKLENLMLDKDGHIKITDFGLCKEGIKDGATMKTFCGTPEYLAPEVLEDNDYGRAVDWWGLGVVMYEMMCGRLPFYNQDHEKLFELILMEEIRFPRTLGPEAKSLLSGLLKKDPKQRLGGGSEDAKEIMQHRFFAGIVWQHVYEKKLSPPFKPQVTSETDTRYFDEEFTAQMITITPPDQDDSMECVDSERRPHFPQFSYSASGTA
T3 sequence (P31751 146-480): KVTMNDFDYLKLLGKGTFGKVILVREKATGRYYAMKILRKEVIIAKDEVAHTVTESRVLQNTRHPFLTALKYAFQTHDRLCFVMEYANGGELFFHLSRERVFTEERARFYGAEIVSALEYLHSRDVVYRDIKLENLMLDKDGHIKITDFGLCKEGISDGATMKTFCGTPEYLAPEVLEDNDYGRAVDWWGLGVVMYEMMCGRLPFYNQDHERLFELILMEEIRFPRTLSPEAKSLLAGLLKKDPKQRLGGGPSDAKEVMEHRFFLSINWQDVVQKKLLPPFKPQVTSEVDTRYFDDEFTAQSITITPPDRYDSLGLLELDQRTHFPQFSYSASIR

Row | IC50 [1] | IC50 [2] | IC50 [3] | Structure (SMILES)
1 | < 50 nM | 50 to 500 nM | > 2000 nM | Clc1ccc(CN2CCN(c3ncnc4[nH]nc(Br)c34)CC2)cc1Cl [Entry 27, 3-bromo-4-{4-[(3,4-dichlorophenyl)methyl]piperazin-1-yl}-1H-pyrazolo[3,4-d]pyrimidine]
2 | 500 to 2000 nM | > 2000 nM | > 2000 nM | Clc1c2ccccc2c(CN2CCN(c3ncnc4[nH]nc(Br)c34)CC2)c2ccccc12 [Entry 71, 3-bromo-4-{4-[(10-chloroanthracen-9-yl)methyl]piperazin-1-yl}-1H-pyrazolo[3,4-d]pyrimidine]
3 | < 50 nM | > 2000 nM | > 2000 nM | Brc1ccccc1CN1CCN(c2ncnc3[nH]nc(Br)c23)CC1 [Entry 45, 3-bromo-4-{4-[(2-bromophenyl)methyl]piperazin-1-yl}-1H-pyrazolo[3,4-d]pyrimidine]
4 | 50 to 500 nM | > 2000 nM | > 2000 nM | Cc1cccc(CN2CCN(c3ncnc4[nH]nc(Br)c34)CC2)c1 [Entry 54, 3-bromo-4-{4-[(3-methylphenyl)methyl]piperazin-1-yl}-1H-pyrazolo[3,4-d]pyrimidine]
5 | 500 to 2000 nM | > 2000 nM | > 2000 nM | Brc1n[nH]c2ncnc(N3CCN(CCCN4CCCC4)CC3)c12 [Entry 69, 3-bromo-4-[4-(3-pyrrolidin-1-ylpropyl)piperazin-1-yl]-1H-pyrazolo[3,4-d]pyrimidine]
6 | < 50 nM | > 2000 nM | > 2000 nM | Brc1n[nH]c2ncnc(N3CCN(Cc4ccc(Oc5ccccc5)cc4)CC3)c12 [Entry 39, 3-bromo-4-(4-{[4-(phenyloxy)phenyl]methyl}piperazin-1-yl)-1H-pyrazolo[3,4-d]pyrimidine]
7 | < 50 nM | 500 to 2000 nM | > 2000 nM | Fc1ccc(CN2CCN(c3ncnc4[nH]nc(Br)c34)CC2)cc1 [Entry 34, 3-bromo-4-{4-[(4-fluorophenyl)methyl]piperazin-1-yl}-1H-pyrazolo[3,4-d]pyrimidine]
8 | < 50 nM | > 2000 nM | > 2000 nM | O=C(Nc1cccc(C(F)(F)F)c1)N1CCN(c2ncnc3[nH]nc(Br)c23)CC1 [Entry 33, 4-(3-bromo-1H-pyrazolo[3,4-d]pyrimidin-4-yl)-N-[3-(trifluoromethyl)phenyl]piperazine-1-carboxamide]
9 | 500 to 2000 nM | > 2000 nM | > 2000 nM | O=C(c1ccc2cc[nH]c2c1)N1CCN(c2ncnc3[nH]nc(Br)c23)CC1 [Entry 67, 3-bromo-4-[4-(1H-indol-6-ylcarbonyl)piperazin-1-yl]-1H-pyrazolo[3,4-d]pyrimidine]
10 | < 50 nM | 50 to 500 nM | > 2000 nM | Clc1ccc(CN2CCN(c3ncnc4[nH]nc(Br)c34)CC2)cc1 [Entry 19, 3-bromo-4-{4-[(4-chlorophenyl)methyl]piperazin-1-yl}-1H-pyrazolo[3,4-d]pyrimidine]
11 | 50 to 500 nM | > 2000 nM | > 2000 nM | Brc1n[nH]c2ncnc(N3CCN(Cc4cccnc4)CC3)c12 [Entry 60, 3-bromo-4-[4-(pyridin-3-ylmethyl)piperazin-1-yl]-1H-pyrazolo[3,4-d]pyrimidine]
12 | 50 to 500 nM | > 2000 nM | > 2000 nM | Brc1n[nH]c2ncnc(N3CCN(Cc4cccc(Oc5ccccc5)c4)CC3)c12 [Entry 53, 3-bromo-4-(4-{[3-(phenyloxy)phenyl]methyl}piperazin-1-yl)-1H-pyrazolo[3,4-d]pyrimidine]
13 | < 50 nM | > 2000 nM | > 2000 nM | Brc1n[nH]c2ncnc(N3CCN(Cc4ccc(-c5ccccc5)cc4)CC3)c12 [Entry 30, 4-[4-(biphenyl-4-ylmethyl)piperazin-1-yl]-3-bromo-1H-pyrazolo[3,4-d]pyrimidine]
14 | 500 to 2000 nM | > 2000 nM | > 2000 nM | CCC(C)N1CCN(c2ncnc3[nH]nc(Br)c23)CC1 (stereo not drawn) [Entry 72, 3-bromo-4-[4-(1-methylpropyl)piperazin-1-yl]-1H-pyrazolo[3,4-d]pyrimidine]
15 | < 50 nM | 500 to 2000 nM | > 2000 nM | Brc1n[nH]c2ncnc(N3CCN(Cc4ccc5c(c4)OCO5)CC3)c12 [Entry 37, 4-[4-(1,3-benzodioxol-5-ylmethyl)piperazin-1-yl]-3-bromo-1H-pyrazolo[3,4-d]pyrimidine]
16 | > 2000 nM | > 2000 nM | > 2000 nM | O=C(CN1CCN(c2ncnc3[nH]nc(Br)c23)CC1)N1CCOCC1 [Entry 75, 3-bromo-4-[4-(2-morpholin-4-yl-2-oxoethyl)piperazin-1-yl]-1H-pyrazolo[3,4-d]pyrimidine]
17 | < 50 nM | 500 to 2000 nM | > 2000 nM | FC(F)(F)c1ccc(CN2CCN(c3ncnc4[nH]nc(Br)c34)CC2)cc1 [Entry 11, 3-bromo-4-(4-{[4-(trifluoromethyl)phenyl]methyl}piperazin-1-yl)-1H-pyrazolo[3,4-d]pyrimidine]
18 | < 50 nM | < 50 nM | 50 to 500 nM | CN(C)CCOC(c1ccc(Cl)cc1)C1CCN(c2ncnc3[nH]nc(Br)c23)CC1 (stereo not drawn) [Entry 2, 2-{[[1-(3-bromo-1H-pyrazolo[3,4-d]pyrimidin-4-yl)piperidin-4-yl](4-chlorophenyl)methyl]oxy}-N,N-dimethylethanamine]
19 | 500 to 2000 nM | > 2000 nM | > 2000 nM | Brc1n[nH]c2ncnc(N3CCN(CC4CCCCC4)CC3)c12 [Entry 70, 3-bromo-4-[4-(cyclohexylmethyl)piperazin-1-yl]-1H-pyrazolo[3,4-d]pyrimidine]
20 | < 50 nM | 500 to 2000 nM | > 2000 nM | O=C(c1ccc(Cl)cc1)C1CCN(c2ncnc3[nH]nc(Br)c23)CC1 [Entry 38, [1-(3-bromo-1H-pyrazolo[3,4-d]pyrimidin-4-yl)piperidin-4-yl](4-chlorophenyl)methanone]
21 | < 50 nM | > 2000 nM | > 2000 nM | Fc1ccc(CN2CCN(c3ncnc4[nH]nc(Br)c34)CC2)c(Cl)c1 [Entry 48, 3-bromo-4-{4-[(2-chloro-4-fluorophenyl)methyl]piperazin-1-yl}-1H-pyrazolo[3,4-d]pyrimidine]
22 | 500 to 2000 nM | > 2000 nM | > 2000 nM | COCCN1CCN(c2ncnc3[nH]nc(Br)c23)CC1 [Entry 74, 3-bromo-4-{4-[2-(methyloxy)ethyl]piperazin-1-yl}-1H-pyrazolo[3,4-d]pyrimidine]
23 | 500 to 2000 nM | > 2000 nM | > 2000 nM | Brc1n[nH]c2ncnc(N3CCN(CCc4cccs4)CC3)c12 [Entry 68, 3-bromo-4-{4-[2-(2-thienyl)ethyl]piperazin-1-yl}-1H-pyrazolo[3,4-d]pyrimidine]
24 | < 50 nM | > 2000 nM | > 2000 nM | CN(C)c1ccc(CN2CCN(c3ncnc4[nH]nc(Br)c34)CC2)cc1 [Entry 41, 4-{[4-(3-bromo-1H-pyrazolo[3,4-d]pyrimidin-4-yl)piperazin-1-yl]methyl}-N,N-dimethylaniline]
25 | 500 to 2000 nM | > 2000 nM | > 2000 nM | Clc1ccc(-c2ccc(CN3CCN(c4ncnc5[nH]nc(Br)c45)CC3)o2)cc1 [Entry 64, 3-bromo-4-(4-{[5-(4-chlorophenyl)furan-2-yl]methyl}piperazin-1-yl)-1H-pyrazolo[3,4-d]pyrimidine]
26 | 50 to 500 nM | > 2000 nM | > 2000 nM | COc1ccc(CN2CCN(c3ncnc4[nH]nc(Br)c34)CC2)c(OC)c1OC [Entry 61, 3-bromo-4-(4-{[2,3,4-tris(methyloxy)phenyl]methyl}piperazin-1-yl)-1H-pyrazolo[3,4-d]pyrimidine]

Row | Structure (SMILES) | IC50 [1] | IC50 [2] | IC50 [3]
27 | Brc1n[nH]c2ncnc(N3CCN(Cc4ccccc4)CC3)c12 [Entry 50, 3-bromo-4-[4-(phenylmethyl)piperazin-1-yl]-1H-pyrazolo[3,4-d]pyrimidine] | 50 to 500 nM | > 2000 nM | > 2000 nM

Source: patent US7994172B2, “[1H-pyrazolo[3, 4-D]pyrimidin-4-yl]-piperidine or -piperazine compounds as serine-theoronine kinase modulators (P70s6k, Atk1 and Atk2) for the treatment of immunological, inflammatory and proliferative diseases” (Exelixis, Inc., priority 2004, dated 2011)
